{"source": "patent US12054494B2", "about": "“Compound with anticancer activity” (KYOWA KIRIN CO., LTD., priority 2018, dated 2024)"}
{"test_system": "SU-DHL-4 cells", "assay": "Inhibitory effect on cell viability (Cell Counting Kit-8)", "type": "cell-based", "settings": "Homo sapiens, 72 hours culture with test compound, concentration showing 90% inhibition rate of cell viability", "description": "Inhibitiory Effect on Cell Viability\nSU-DHL-4 cells (Code No. ACC 495, Deutsche Sammlung von Mikroorganismen and Zellkulturen GmbH) were cultured at 37° C. using a carbon dioxide incubator (95% air, 5% CO2) in RPMI1640 medium (Code No. 11875-093, Thermo Fisher Scientific) in which inactivated fetal bovine serum (FBS: Code No. 10099-148, Thermo Fisher Scientific) in an amount to give a final concentration of 10 vol % and penicillin/streptomycin solution (PS: Code No. 15140-122, Thermo Fisher Scientific) in an amount to give a final concentration of 1 vol % were added. The cells were passaged twice a week at a volume of 20-40 mL so as to maintain a cell concentration of 1×10^6 cells/mL or less.\nThe cultured SU-DHL-4 cells were seeded at 2000 cells/well in a transparent 384-well plate (Code No. 781182, Greiner bio-one). After seeding, the cells were precultured at 37° C. in a carbon dioxide gas incubator for 18 to 25 hours. Next, 1, 0.1 or 0.01 mmol/L DMSO solution of the test compound was prepared and a 9-step dilution series were prepared so that the concentration will be 200 times the final concentration in the RPMI1640 medium containing the above FBS and PS, and 1/200 volume of the dilution series were added to each well. At this time, the final concentration of DMSO was adjusted to be 0.1 vol %. After adding the test compound, the cells were cultured at 37° C. in a carbon dioxide gas incubator for 72 hours. Next, 0.020 mL of Cell Counting Kit-8 (Code No. CK04, DOJINDO) solution diluted 2-fold or 4-fold with phosphate buffered saline (PBS) was added to each well. Color reaction was carried out in a carbon dioxide gas incubator at 37° C. for 2 to 3 hours, and the absorbance at a wavelength of 450 nm was measured using SpectraMax 340PC (Molecular Devices). The inhibition rate of cell viability was calculated by the following formula, and the concentration of the test compound (IC90 value) showing a 90% inhibition rate of cell viability was calculated. Inhibition rate of cell viability (%)=100−(A−B)/(C−B)×100 • A: Absorbance of a well containing test compound • B: Absorbance of a well without addition of cells • C: Absorbance of a well without addition of test compound", "units": {"IC90": "nM"}}
{"smiles": "CCC(=O)N1c2ccccc2[C@H](Nc2ccc(C(=O)NC3CCN(C(=O)c4ccc(N[C@@H]5C[C@H](C)N(C(=O)CC)c6ccccc65)cc4)CC3)cc2)C[C@@H]1C", "note": "(relative stereo) [Compound 1c, 4-{[(2S*,4R*)-2-Methyl-1-propionyl-1,2,3,4-tetrahydroquinolin-4-yl]amino}-N-[1-(4-{[(2S*,4R*)-2-methyl-1-propionyl-1,2,3,4-tetrahydroquinolin-4-yl]amino}benzoyl)piperidin-4-yl]benzamide]", "IC90": 7.85}
{"smiles": "CCC(=O)N1c2ccccc2[C@H](Nc2ccc(C(=O)NC3CN(C(=O)c4ccc(N[C@@H]5C[C@H](C)N(C(=O)CC)c6ccccc65)cc4)C3)cc2)C[C@@H]1C", "note": "(relative stereo) [Compound 1g, 4-{[(2S*,4R*)-2-Methyl-1-propionyl-1,2,3,4-tetrahydroquinolin-4-yl]amino}-N-[1-(4-{[(2S*,4R*)-2-methyl-1-propionyl-1,2,3,4-tetrahydroquinolin-4-yl]amino}benzoyl)azetidin-3-yl]benzamide]", "IC90": 10.6}
{"smiles": "CCC(=O)N1c2ccccc2[C@H](Nc2ccc(NC(=O)CNC(=O)c3ccc(N[C@@H]4C[C@H](C)N(C(=O)CC)c5ccccc54)cc3)cc2)C[C@@H]1C", "note": "(relative stereo) [Compound 2a, 4-{[(2S*,4R*)-2-Methyl-1-propionyl-1,2,3,4-tetrahydroquinolin-4-yl]amino}-N-{2-[(4-{[(2S*,4R*)-2-methyl-1-propionyl-1,2,3,4-tetrahydroquinolin-4-yl]amino}phenyl)amino]-2-oxoethyl}benzamide]", "IC90": 2.12}
{"smiles": "CCC(=O)N1c2ccccc2[C@H](Nc2ccc(NC(=O)[C@@H](C)NC(=O)c3ccc(N[C@@H]4C[C@H](C)N(C(=O)CC)c5ccccc54)cc3)cc2)C[C@@H]1C", "note": "(relative stereo) [Compound 2c, 4-{[(2S,4R)-2-Methyl-1-propionyl-1,2,3,4-tetrahydroquinolin-4-yl]amino}-N-{(R)-1-[(4-{[(2S*,4R*)-2-methyl-1-propionyl-1,2,3,4-tetrahydroquinolin-4-yl]amino}phenyl)amino]-1-oxopropan-2-yl}benzamide]", "IC90": 29.1}
{"smiles": "CCC(=O)N1c2ccccc2[C@H](Nc2ccc(NC(=O)[C@H](C)NC(=O)c3ccc(N[C@@H]4C[C@H](C)N(C(=O)CC)c5ccccc54)cc3)cc2)C[C@@H]1C", "note": "(relative stereo) [Compound 2d, 4-{[(2S,4R)-2-Methyl-1-propionyl-1,2,3,4-tetrahydroquinolin-4-yl]amino}-N-{(S)-1-[(4-{[(2S*,4R*)-2-methyl-1-propionyl-1,2,3,4-tetrahydroquinolin-4-yl]amino}phenyl)amino]-1-oxopropan-2-yl}benzamide]", "IC90": 26.6}
{"smiles": "CCC(=O)N1c2ccccc2[C@H](Nc2ccc(NC(=O)[C@@H](NC(=O)c3ccc(N[C@@H]4C[C@H](C)N(C(=O)CC)c5ccccc54)cc3)C(C)C)cc2)C[C@@H]1C", "note": "(relative stereo) [Compound 2e, N-{(S)-3-Methyl-1-[(4-{[(2S*,4R*)-2-methyl-1-propionyl-1,2,3,4-tetrahydroquinolin-4-yl]amino}phenyl)amino]-1-oxobutan-2-yl}-4-{[(2S,4R)-2-methyl-1-propionyl-1,2,3,4-tetrahydroquinolin-4-yl]amino}benzamide]", "IC90": 16.3}
{"smiles": "CCC(=O)N1c2ccccc2[C@H](Nc2ccc(NC(=O)CCNC(=O)c3ccc(N[C@@H]4C[C@H](C)N(C(=O)CC)c5ccccc54)cc3)cc2)C[C@@H]1C", "note": "(relative stereo) [Compound 2f, 4-{[(2S,4R)-2-Methyl-1-propionyl-1,2,3,4-tetrahydroquinolin-4-yl]amino}-N-{3-[(4-{[(2S*,4R*)-2-methyl-1-propionyl-1,2,3,4-tetra hydroquinolin-4-yl]amino}phenyl)amino]-3-oxopropyl}benzamide]", "IC90": 0.23}
{"smiles": "CCC(=O)N1c2ccccc2[C@H](Nc2ccc(NC(=O)C3CCN(C(=O)c4ccc(N[C@@H]5C[C@H](C)N(C(=O)CC)c6ccccc65)cc4)CC3)cc2)C[C@@H]1C", "note": "(relative stereo) [Compound 2g, 1-(4-{[(2S,4R)-2-Methyl-1-propionyl-1,2,3,4-tetrahydroquinolin-4-yl]amino}benzoyl)-N-(4-{[(2S*,4R*)-2-methyl-1-propionyl-1,2,3,4-tetrahydroquinolin-4-yl]amino}phenyl)piperidine-4-carboxamide]", "IC90": 0.63}
{"smiles": "CCC(=O)N1c2ccccc2[C@H](Nc2ccc(NC(=O)C3CN(C(=O)c4ccc(N[C@@H]5C[C@H](C)N(C(=O)CC)c6ccccc65)cc4)C3)cc2)C[C@@H]1C", "note": "(relative stereo) [Compound 2h, 1-(4-{[(2S,4R)-2-Methyl-1-propionyl-1,2,3,4-tetrahydroquinolin-4-yl]amino}benzoyl)-N-(4-{[(2S*,4R*)-2-methyl-1-propionyl-1,2,3,4-tetrahydroquinolin-4-yl]amino}phenyl)azetidine-3-carboxamide]", "IC90": 0.03}
{"smiles": "CCC(=O)N1c2ccccc2[C@H](Nc2ccc(NC(=O)[C@@H]3CCN(C(=O)c4ccc(N[C@@H]5C[C@H](C)N(C(=O)CC)c6ccccc65)cc4)C3)cc2)C[C@@H]1C", "note": "(relative stereo) [Compound 2i, (R)-1-(4-{[(2S,4R)-2-Methyl-1-propionyl-1,2,3,4-tetrahydroquinolin-4-yl]amino}benzoyl)-N-(4-{[(2S*,4R*)-2-methyl-1-propionyl-1,2,3,4-tetrahydroquinolin-4-yl]amino}phenyl)pyrrolidine-3-carboxamide]", "IC90": 1.84}
{"smiles": "CCC(=O)N1c2ccccc2[C@H](Nc2ccc(NC(=O)CC(C)CC(=O)Nc3ccc(N[C@@H]4C[C@H](C)N(C(=O)CC)c5ccccc54)cc3)cc2)C[C@@H]1C", "note": "(relative stereo) [Compound 4b, 3-Methyl-N^1,N^5-bis(4-{[(2S*,4R*)-2-methyl-1-propionyl-1,2,3,4-tetrahydroquinolin-4-yl]amino}phenyl)pentanediamide]", "IC90": 5.87}
{"smiles": "CCC(=O)N1c2ccccc2[C@H](Nc2ccc(NS(=O)(=O)c3cccc(NC(=O)c4ccc(N[C@@H]5C[C@H](C)N(C(=O)CC)c6ccccc65)cc4)c3)cc2)C[C@@H]1C", "note": "(relative stereo) [Compound 4c, 4-{[(2S,4R)-2-Methyl-1-propionyl-1,2,3,4-tetrahydroquinolin-4-yl]amino}-N-{3-[N-(4-{[(2S*,4R*)-2-methyl-1-propionyl-1,2,3,4-tetrahydroquinolin-4-yl]amino}phenyl)sulfamoyl]phenyl}benzamide]", "IC90": 4.03}
{"smiles": "CCC(=O)N1c2ccccc2[C@H](Nc2ccc(NC(=O)CCSc3ccc(N[C@@H]4C[C@H](C)N(C(=O)CC)c5ccccc54)cc3)cc2)C[C@@H]1C", "note": "(relative stereo) [Compound 4e, N-(4-{[(2S*,4R*)-2-Methyl-1-propionyl-1,2,3,4-tetrahydroquinolin-4-yl]amino}phenyl)-3-[(4-{[(2S,4R)-2-methyl-1-propionyl-1,2,3,4-tetrahydroquinolin-4-yl]amino}phenyl)thio]propanamide]", "IC90": 0.34}
{"smiles": "CCC(=O)N1c2ccccc2[C@H](Nc2ccc(NC(=O)Cc3cn(-c4ccc(N[C@@H]5C[C@H](C)N(C(=O)CC)c6ccccc65)cc4)nn3)cc2)C[C@@H]1C", "note": "(relative stereo) [Compound 6i, N-(4-(((2S*,4R*)-2-Methyl-1-propionyl-1,2,3,4-tetrahydroquinolin-4-yl)amino)phenyl)-2-(1-(4-(((2S*,4R*)-2-methyl-1-propionyl-1,2,3,4-tetrahydroquinolin-4-yl)amino)phenyl)-1H-1,2,3-triazol-4-yl)acetamide]", "IC90": 0.11}
